Assays:
[1] = system: C57BL/6 mice; assay: Ethanol-induced working memory deficit (win-shift); format: in vivo; conditions: Ethanol 0.5 gm/kg i.p. ten minutes prior to testing
Description: Six month old male C57BL/6 mice were evaluated in the win-shift model in combination with treatment with ethanol, a non-specific memory suppressant, and AIT-082. Subjects were treated with saline (control) or AIT-082 (30 mg/kg. i.p.) 1 hour prior to testing. Ethanol was administered at a dose of 0.5 gm/kg i.p. ten minutes prior to testing.

[2] = system: mice; assay: T-maze memory test with atropine co-administration; format: in vivo; conditions: AIT-082 30 mg/kg i.p. 2 hr prior; atropine 0.5 mg/kg i.p. 1/2 hour prior to testing, day 3
Description: To elucidate the mechanisms by which AIT-082 improves memory, attempts were made to block its actions by co-administration of the short-acting cholinergic antagonist atropine to mice and subjecting them to simple learning tests. Atropine reportedly has the ability to block the effects of physostigmine and THA. Mice were injected with AIT-082 (30 mg/kg) 2 hr prior to testing on days 1 through 4. Atropine (0.5 mg/kg) was injected ½ hour prior to testing or 1.5 hours after AIT-082 on day 3 only. All injections were i.p. After a reference run to determine where the reward was placed in a T-maze, the mice were retested to determine if they could remember the location of the reward. The percentage of correct responses is graphically represented in FIG. 2.

[3] = system: cGMP levels in PC12 cells; assay: cGMP levels in PC12 cells (radioimmunoassay); format: cell-based, rat; conditions: NGF-primed PC12 cells
Description: Initially, PC-12 cells were primed with 40 ng/ml NGF for 3 days in low serum medium (1.5% horse serum+5% fetal calf serum). Cells were seeded onto assay plates in low serum medium containing 40 ng/ml NGF and incubated for 1 hour. The medium was changed to low arginine medium (80 μM) with no serum and NGF and papaverine ([…]) where indicated. Test compounds were added for the indicated time and the reaction was stopped by adding 5% TCA containing 10,000 dpm of ^3H-cGMP. cGMP was assayed by the radioimmunoassay method of Maurice (Mol. Pharmacol. 37: 671-681, 1990). TCA was purified by adding powdered charcoal (5 g) and filtering the mixture through Whatman #1 paper. This removed contaminants in the TCA that otherwise interfere with the radioimmunoassay (RIA) of cGMP.
It was necessary to purify the cGMP from cAMP and other contaminants before radioimmunoassay since these other materials can interfere with the assay. Briefly, the TCA solution was applied to Dowex columns (50W-8X, 200-400 mesh) and eluted. A neutral alumina column was then placed under each Dowex column. The cGMP was eluted from the Dowex columns into neutral alumina columns by adding 4 mL of 0.05 M HCl to each Dowex column. The neutral alumina columns were then sequentially rinsed with 2 ml of HCl, 4 mL water and finally with 0.2 M sodium acetate (pH 6.2). The cGMP collected for the RIA eluted in 1 ML of sodium acetate with a recovery between 50-65%. The cGMP was assayed using a Dupont RIA kit.

[4] = system: rat cultured astrocytes; assay: Release of radioactively labeled adenine-based purines from rat cultured astrocytes; format: cell-based; conditions: 300 μM, 1 hour
Description: The experiments were carried out on cultured astrocytes of rat hippocampus at the fourth day in vitro (DIV), obtained from primary cultures replated in 35 mm Petri dishes ([…] cells/dish) and preloaded with [^3H]-adenosine (5×10^−8 M for a specific activity of 20.0 Ci/mM) for 30 minutes at 37° C.
The effect of AIT-082 on the proportional release of radioactively labeled adenine nucleosides and nucleotides from rat cultured astrocytes is shown in FIGS. 29A and 29B. Culture medium collected during the first hour of the release was analyzed by high performance liquid chromatography (HPLC) and the radioactivity associated with the different adenine compounds was measured and expressed as a percentage of the total radioactivity released. The results are shown for ATP, ADP, and AMP in FIG. 29A, and for adenosine, inosine, and hypoxanthine in FIG. 29B.

[5] = system: rat cultured astrocytes; assay: as above; format: cell-based; conditions: 300 μM
[6] = system: PC12 cells; assay: Neuritogenesis in PC12 cells; format: cell-based, rat
Description: Much of the work performed in the characterization of the compounds of the present invention involved the use of PC12 cells. These cells are derived from a rat pheochromocytoma and when grown in the presence of NGF, extend neurites, cease cell division and assume many characteristics of sympathetic neurons. When cultured in the absence of nerve growth factor (NGF), few PC12 cells have neurites greater than one cell diameter. Addition of saturating concentrations of NGF for 48 hours stimulates neurite outgrowth in about 20-35% of the cells. Because they constitute a homogeneous population of neuronal-like cells, without contaminating astroglia type cells, it is possible to study the direct effects of the purine based compounds on neurite outgrowth in these cells.
Cells cultured in RPMI 1640 with 1.5% horse serum and 1.5% fetal bovine serum were re-plated onto poly-ornithine coated 24-well culture plates (2.5×10^4 cells per well). AIT-082 and NGF were added to the various cultures immediately upon plating. After 48 hours, medium was removed and the cells irnmediately fixed in 10% formalin and PBS for 10 minutes. Cells and neurites were counted within 2 days of fixation.
A neurite was defined as a process extending from the cell at least 1 cell body diameter in length and displaying a growth cone at its tip. For each treatment, 2 representative microscope fields were counted from each of 6 sister cultures receiving identical treatments. The total number of cells counted per well (approximately 100 cells) and the total number of cells containing neurites in each well were used to determine fraction of neurite-bearing cells. The mean values (±SEM) were then determined for each of the treatments. To facilitate comparison neurite outgrowth was expressed relative to the proportion of cells bearing neurites in the presence of NGF alone (NGF=100%). The effects of compounds with and without NGF were compared by analysis of variance (ANOVA) followed by Tukey's test for significance.
The results are shown in FIG. 3 where the curve represents different levels of AIT-082 plus saturating concentrations (40 ng/ml) NGF. The center horizontal line represents control values for cells cultured in the presence of 40 ng/ml NGF alone. Upper and lower horizontal lines are indicative of confidence limits of NGF alone as determined using standard statistical methods.

[7] = system: neocortical astrocytes; assay: NGF-like immunoreactivity in astrocyte culture medium (ELISA); format: cell-based, mouse; conditions: astrocytes incubated with different concentrations
Description: Astrocytes appear to proliferate in response to extracellular guanosine or guanosine triphosphate (GTP). GTP or guanosine may also stimulate the release of trophic factors from cultures of neocortical astrocytes from neonatal mouse brains. Astrocytes were incubated with different concentrations of guanosine or GTP respectively. Neurotrophin imunoreactivity in the culture medium from treated cells was then measured by ELISA.
Briefly, 96 well Falcon plates (Fisher) were coated with […] of sheep mono-specific anti-NGF IgG (affinity column purified) contained in 0.1M sodium carbonate buffer pH 9.6. After an overnight incubation at 4° C. blocking solution (PBS with 10% goat serum) was added to remove excess antibody. After a four hour incubation at room temperature the plates were washed three times with PBS containing 0.05% Tween 20. The conditioned media and standard 2.5S HPLC purified NGF were added and incubated overnight. The next day plates were washed 3 times with PBS-0.05% Tween 20. The secondary antibody, rabbit mono-specific anti-NGF IgG conjugated with β-galactosidase (Pierce-SPDP method) (1:500 dilution) was added. The plates were incubated overnight at 4° C. The next day the plates were washed 3 times with PBS-0.05% Tween 20. […]
The ELISA assay detected neurotrophins NGF and NT-3 with ahnost equal affinity and BDNF with 100 times less affinity. […]

CCO [Ethanol, ethanol, reference compound]
Correct trials (mean number of correct responses per 10 trials ± S.E.) [1]: 6.5 ± 26

CN1[C@@H]2CC[C@H]1C[C@@H](OC(=O)C(CO)c1ccccc1)C2 (stereo partly drawn) [atropine]
effect of atropine on memory enhancement by AIT-082 [2]: blocked the memory enhancing activity of AIT-082

Nc1nc2c(ncn2[C@@H]2O[C@H](COP(=O)(O)OP(=O)(O)OP(=O)(O)O)[C@@H](O)[C@H]2O)c(=O)[nH]1 [GTP, guanosine triphosphate, reference compound]
cGMP in PC12 cells [3]: did not increase levels of cGMP | ADP, proportional release [4]: (17.8 ± 2.6) percentage of the total [^3H]-purines released | Adenosine, proportional release [4]: (4.0 ± 0.5) percentage of the total [^3H]-purines released | Inosine, proportional release [4]: (14.0 ± 1.7) percentage of the total [^3H]-purines released | ADP, radioactivity released in the culture medium ([5]; 1 hour): 2.10 ± 0.31 cpm × 10^3 | AMP, proportional release ([5]; 1 hour): (23.5 ± 2.4) percentage of the total [^3H]-purines released | AMP, radioactivity released in the culture medium ([5]; 1 hour): 2.76 ± 0.28 cpm × 10^3 | ATP, proportional release ([5]; 1 hour): (10.9 ± 1.1) percentage of the total [^3H]-purines released | ATP, radioactivity released in the culture medium ([5]; 1 hour): 1.28 ± 0.13 cpm × 10^3 | Adenosine, radioactivity released in the culture medium ([5]; 1 hour): 0.47 ± 0.06 cpm × 10^3 | Hypoxanthine, proportional release ([5]; 1 hour): (18.4 ± 2.6) percentage of the total [^3H]-purines released | Hypoxanthine, radioactivity released in the culture medium ([5]; 1 hour): 2.20 ± 0.31 cpm × 10^3 | Inosine, radioactivity released in the culture medium ([5]; 1 hour): 1.65 ± 0.2 cpm × 10^3 | ADP, proportional release ([5]; 3 hours): (8.6 ± 0.7) percentage of the total [^3H]-purines released | ADP, radioactivity released in the culture medium ([5]; 3 hours): 1.05 ± 0.09 cpm × 10^3 | AMP, proportional release ([5]; 3 hours): (40.0 ± 3.9) percentage of the total [^3H]-purines released | AMP, radioactivity released in the culture medium ([5]; 3 hours): 4.32 ± 0.48 cpm × 10^3 | ATP, proportional release ([5]; 3 hours): (4.4 ± 0.4) percentage of the total [^3H]-purines released | ATP, radioactivity released in the culture medium ([5]; 3 hours): 0.54 ± 0.05 cpm × 10^3 | Adenosine, proportional release ([5]; 3 hours): (2.5 ± 0.2) percentage of the total [^3H]-purines released | Adenosine, radioactivity released in the culture medium ([5]; 3 hours): 0.31 ± 0.02 cpm × 10^3 | Hypoxanthine, proportional release ([5]; 3 hours): (25.0 ± 3.7) percentage of the total [^3H]-purines released | Hypoxanthine, radioactivity released in the culture medium ([5]; 3 hours): 3.11 ± 0.45 cpm × 10^3 | Inosine, proportional release ([5]; 3 hours): (9.7 ± 1.2) percentage of the total [^3H]-purines released | Inosine, radioactivity released in the culture medium ([5]; 3 hours): 1.19 ± 0.19 cpm × 10^3 | neurite outgrowth in the absence of NGF ([6]; compound alone): elicited neurite outgrowth on its own | enhancement of NGF-induced neurite outgrowth ([6]; in the presence of NGF, 48 hours): did enhance neuritogenesis in the presence of NGF | NGF-like immunoreactivity in the culture medium [7]: increased the amount of NGF-like immunoreactivity
